Measured values from patent US20080255186A1, “Pyrazolo[3,4-B]Pyridine Compound, and Its Use as a Pde4 Inhibitor” (priority 2005, published 2008).

Molecular target: PDE4D (human recombinant) (Homo sapiens, UniProt Q08499)
Assay: PDE4D inhibition, IMAP Fluorescence Polarisation (FP) assay
Type: biochemical
Details: mean of n = 3 readings; accurate to about ±0.5 log unit; read-out: PDE4D pIC50 (± about 0.5) (FP assay), Mean pIC50 value (converted)
Excerpt: Human recombinant PDE4D (HSPDE4D3A) is disclosed in P. A. Baecker et al., “Isolation of a cDNA encoding a human rolipram-sensitive cyclic AMP phoshodiesterase (PDE IVD)”, Gene, 1994, 138, 253-256.
The ability of compounds to inhibit catalytic activity at PDE4B (human recombinant) or PDE4D (human recombinant) can optionally be determined by IMAP Fluorescence Polarisation (FP) assay (IMAP Explorer kit, available from Molecular Devices Corporation, Sunnydale, Calif., USA; Molecular Devices code: R8062) in 384-well format.
The IMAP FP assay is able to measure PDE activity in an homogenous, non-radioactive assay format. […] Binding of Fl-AMP product to the beads (coated with the immobilised trivalent cations) slows the rotation of the bound Fl-AMP and leads to an increase in the fluorescence polarisation ratio of parallel to perpendicular light. […]
Test compounds (small volume, e.g. ca. 0.5 to 1 microlitres (ul), suitably ca. 0.5 ul, of solution in DMSO) are preincubated at ambient temperature (room temperature, e.g. 19-23° C.) in black 384-well microtitre plates (supplier: NUNC, code 262260) with PDE enzyme in 10 mM Tris-HCl buffer pH 7.2, 1 mM MgCl2, 0.1% (w/v) bovine serum albumin, and 0.05% NaN3 for 10-30 minutes. […] The Fluorescence Polarisation (FP) ratio of parallel to perpendicular light is measured using an Analyst™ plate reader (from Molecular Devices Corporation). […]

Chain of PDE4D (human recombinant) (Q08499 1-673 isoform Q08499-2): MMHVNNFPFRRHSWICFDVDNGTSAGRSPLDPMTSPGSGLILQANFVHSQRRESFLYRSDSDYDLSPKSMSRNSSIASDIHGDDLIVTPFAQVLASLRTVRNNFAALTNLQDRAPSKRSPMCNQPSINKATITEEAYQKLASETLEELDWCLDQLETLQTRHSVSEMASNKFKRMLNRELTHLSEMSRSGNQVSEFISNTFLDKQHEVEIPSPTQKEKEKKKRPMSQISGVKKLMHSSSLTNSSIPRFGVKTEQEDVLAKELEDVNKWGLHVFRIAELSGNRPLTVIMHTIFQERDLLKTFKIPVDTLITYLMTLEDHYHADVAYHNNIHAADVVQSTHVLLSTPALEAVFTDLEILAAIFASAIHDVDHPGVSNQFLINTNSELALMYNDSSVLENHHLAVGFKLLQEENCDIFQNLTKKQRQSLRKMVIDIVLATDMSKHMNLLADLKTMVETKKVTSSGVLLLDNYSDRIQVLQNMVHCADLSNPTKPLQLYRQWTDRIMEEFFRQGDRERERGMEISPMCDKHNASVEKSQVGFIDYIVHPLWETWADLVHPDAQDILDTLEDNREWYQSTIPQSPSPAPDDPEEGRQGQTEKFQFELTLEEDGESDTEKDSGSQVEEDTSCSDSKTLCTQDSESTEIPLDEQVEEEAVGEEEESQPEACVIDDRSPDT

IC50: ~0.1 nM
Structure (SMILES): CCc1nc2c(cnn2CC)c(NC2CCOCC2)c1CNC(=O)c1cc(C)no1 [Example 1, N-{[1,6-diethyl-4-(tetrahydro-2H-pyran-4-ylamino)-1H-pyrazolo[3,4-b]pyridin-5-yl]methyl}-3-methyl-5-isoxazolecarboxamide]
